{"source": "patent US8937168B2", "about": "“Method of producing purified rebaudioside A compositions using solvent/antisolvent crystallization” (Cargill, Incorporated, priority 2007, dated 2015)", "origin": "cited, not measured here", "conditions": "relative to sucrose; background statement", "data": [{"smiles": "C=C1C[C@@]23CC[C@H]4[C@@](C)(CCC[C@@]4(C)C(=O)O[C@@H]4O[C@H](CO)[C@@H](O)[C@H](O)[C@H]4O)[C@@H]2CC[C@]1(O[C@@H]1O[C@H](CO)[C@@H](O)[C@H](O[C@@H]2O[C@H](CO)[C@@H](O)[C@H](O)[C@H]2O)[C@H]1O[C@@H]1O[C@H](CO)[C@@H](O)[C@H](O)[C@H]1O)C3", "note": "[Rebaudioside A, rebaudioside A]", "values": [{"measurement": "times the sweetness of sucrose", "result": "250-450 times"}]}]}
